In experiment [1] the test system is human multiple myeloma cell line, OPM-2. Nature of the experiment: Cell viability assay (OPM-2 10 FBS), CellTiter-Glo. The format is cell-based. The method, boiled down:
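Cells were seeded at 3000 cells/well in RPMI 1640 with 10% FBS and exposed to serially diluted compounds for 16 h at 37 °C, 5% CO2.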
(Cellular ATP, detected with luciferase, serves as a proxy for viable cell number.)

Experiment [2] concerns the target recombinant human Mcl-1 (residues 171-327) / Bim interaction (Homo sapiens (Human), UniProt Q07820). Briefly: biochemical. It is filed as binding. The following applies: read-out: Mcl-1 HTRF IC50. A general note: Time-resolved FRET reads energy transfer from a long-lived donor to a nearby acceptor.
[3] abbreviates: read-out: OPM-2 10% FBS IC50 IP, OPM-2 cells, 10% FBS, 16 h, CellTiter-Glo.
Setting [4] is: TR-FRET, Mcl-1(171-327) / biotin-Bim (51-76).
Where [5] appears, read: Homo sapiens, OPM-2, 16 h, read-out: OPM-2 10% FBS IC50 IP, OPM-2 cells, 10% FBS, 16 h, CellTiter-Glo.
Setting [6] is: Homo sapiens, OPM-2, 16 h, read-out: OPM-2 10% FBS IC50 IP, OPM-2 cells, 10% FBS, 16 h incubation.
Setting [7] is: 0.1 nM Mcl-1(171-327), 0.05 nM biotin-Bim (51-76).

Read-outs that look alike come from different tables or passages of the source.

The results in this text go back to patent US10821115B2, “Compounds that inhibit Mcl-1 protein” (priority 2017, dated 2020).

The term IC50 denotes the concentration that inhibits the measured activity by half.

Chain of recombinant human Mcl-1 (residues 171-327) / Bim interaction (Q07820 171-327): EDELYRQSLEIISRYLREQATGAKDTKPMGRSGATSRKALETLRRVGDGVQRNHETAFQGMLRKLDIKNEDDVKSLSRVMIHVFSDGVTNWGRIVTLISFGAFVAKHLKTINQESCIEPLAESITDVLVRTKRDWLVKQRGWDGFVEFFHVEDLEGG

`C[C@@H]1[C@@H](C)C/C=C/[C@](O)(Cc2ccnc(C#N)c2)[C@@H]2CC[C@H]2CN2C[C@@]3(CCCc4cc(Cl)ccc43)COc3ccc(cc32)C(=O)NS1(=O)=O` [Example 100187, 4-(((1S,3′R,6′R,7′R,8′E,11′S,12′R)-6-chloro-7′-hydroxy-11′,12′-dimethyl-13′,13′-dioxido-15′-oxo-3,4-dihydro-2H-spiro[naphthalene-1,22′-[20]oxa[13]thia[1,14]diazatetracyclo [14.7.2.0~3,6~.0~19,24~]pentacosa[8,16,18,24]tetraen]-7′-yl)methyl)-2-pyridinecarbonitrile]: the IC50 was found to be 3110 nM in experiment [1] (setting [3]) and 2.76 nM in experiment [2] (setting [4]).

On to `COCCN1CCN(CCO[C@@]2(C)/C=C/C[C@H](C)[C@@H](C)S(=O)(=O)NC(=O)c3ccc4c(c3)N(C[C@@H]3CC[C@H]32)C[C@@]2(CCCc3cc(Cl)ccc32)CO4)CC1` [Example 100485, (1S,3′R,6′R,7′S,8′E,11′S,12′R)-6-chloro-7′-(2-(4-(2-methoxyethyl)-1-piperazinyl)ethoxy)-7′,11′,12′-trimethyl-3,4-dihydro-2H,15′H-spiro[naphthalene-1,22′-[20]oxa[13]thia[1,14]diazatetracyclo [14.7.2.0~3,6~.0~19,24~]pentacosa[8,16,18,24]tetraen]-15′-one 13′,13′-dioxide], for which the results for the IC50 in experiment [1] (setting [5]) and in experiment [2] (setting [4]) were 272 nM and 0.192 nM, respectively.

`CO[C@@]1(CCO)/C=C/C[C@H](C)[C@@H](C)S(=O)(=O)NC(=O)c2ccc3c(c2)N(C[C@@H]2CC[C@H]21)C[C@@]1(CCCc2cc(Cl)ccc21)CO3` [Example 100218, (1S,3′R,6′R,7′S,8′E,11′S,12′R)-6-chloro-7′-(2-hydroxyethyl)-7′-methoxy-11′,12′-dimethyl-3,4-dihydro-2H,15′H-spiro[naphthalene-1,22′-[20]oxa[13]thia[1,14]diazatetracyclo [14.7.2.0~3,6~.0~19,24~]pentacosa[8,16,18,24]tetraen]-15′-one 13′,13′-dioxide]: the IC50 came to 675 nM in experiment [1] (setting [5]) and 0.621 nM in experiment [2] (setting [4]).

For `CNC[C@]1(OC)/C=C/C[C@H](C)[C@@H](C)S(=O)(=O)NC(=O)c2ccc3c(c2)N(C[C@@H]2CC[C@H]21)C[C@@]1(CCCc2cc(Cl)ccc21)CO3` [Example 65, (1S,3′R,6′R,7′S,8′E,11′S,12′R)-6-chloro-7′-methoxy-11′,12′-dimethyl-7′-((methylamino)methyl)-3,4-dihydro-2H,15′H-spiro[naphthalene-1,22′-[20]oxa[13]thia[1,14]diazatetracyclo [14.7.2.0~3,6~.0~19,24~]pentacosa[8,16,18,24]tetraen]-15′-one 13′,13′-dioxide], the IC50 in experiment [1] (setting [6]) was found to be 1500 nM; in experiment [2] (setting [7]) it was 0.451 nM.

With `CO[C@]1(CN2CCN3CC[C@H](F)C[C@@H]3C2)/C=C/C[C@H](C)[C@@H](C)S(=O)(=O)NC(=O)c2ccc3c(c2)N(C[C@@H]2CC[C@H]21)C[C@@]1(CCCc2cc(Cl)ccc21)CO3` (single isomer, unassigned) [Example 325], the IC50 in experiment [1] (read-out: OPM-2 10% FBS IC50 IP, OPM-2 cells, 10% FBS, 16 h incubation) came out at 192 nM; in experiment [2] (setting [7]) it was 0.18 nM.

With `CO[C@@]1(c2csc(C)n2)/C=C/C[C@H](C)[C@@H](C)S(=O)(=O)NC(=O)c2ccc3c(c2)N(C[C@@H]2CC[C@H]21)C[C@@]1(CCCc2cc(Cl)ccc21)CO3` [Example 100517, (1S,3′R,6′R,7′S,8′E,11′S,12′R)-6-chloro-7′-methoxy-11′,12′-dimethyl-7′-(2-methyl-1,3-thiazol-4-yl)-3,4-dihydro-2H,15′H-spiro[naphthalene-1,22′-[20]oxa[13]thia[1,14]diazatetracyclo [14.7.2.0~3,6~.0~19,24~]pentacosa[8,16,18,24]tetraen]-15′-one 13′,13′-dioxide], the results for the IC50 in experiment [1] (setting [5]) and in experiment [2] (setting [4]) were 3460 nM and 1.06 nM, respectively.

Regarding `COCC#C[C@@]1(OC)/C=C/C[C@H](C)[C@@H](C)S(=O)(=O)NC(=O)c2ccc3c(c2)N(C[C@@H]2CC[C@H]21)C[C@@]1(CCCc2cc(Cl)ccc21)CO3` [Example 100343, (1S,3′R,6′R,7′R,8′E,11′S,12′R)-6-chloro-7′-methoxy-7′-(3-methoxy-1-propyn-1-yl)-11′,12′-dimethyl-3,4-dihydro-2H,15′H-spiro[naphthalene-1,22′-[20]oxa[13]thia[1,14]diazatetracyclo [14.7.2.0~3,6~.0~19,24~]pentacosa[8,16,18,24]tetraen]-15′-one 13′,13′-dioxide], the values for the IC50 in experiment [1] (setting [5]) and in experiment [2] (setting [4]) were 617 nM and 2.51 nM, respectively.

`CO[C@@]1(CC(=O)N(C)C2CCCC2)/C=C/C[C@H](C)[C@@H](C)S(=O)(=O)NC(=O)c2ccc3c(c2)N(C[C@@H]2CC[C@H]21)C[C@@]1(CCCc2cc(Cl)ccc21)CO3` [Example 100405, 2-((1S,3′R,6′R,7′S,8′E,11′S,12′R)-6-chloro-7′-methoxy-11′,12′-dimethyl-13′,13′-dioxido-15′-oxo-3,4-dihydro-2H-spiro[naphthalene-1,22′-[20]oxa[13]thia[1,14]diazatetracyclo [14.7.2.0~3,6~.0~19,24~]pentacosa[8,16,18,24]tetraen]-7′-yl)-N-cyclopentyl-N-methylacetamide]: the IC50 is 1120 nM in experiment [1] (setting [5]) and 0.545 nM in experiment [2] (setting [4]).

With `CO[C@@]1(CN2CCN(C(C)=O)CC2)/C=C/C[C@H](C)[C@@H](C)S(=O)(=O)NC(=O)c2ccc3c(c2)N(C[C@@H]2CC[C@H]21)C[C@@]1(CCCc2cc(Cl)ccc21)CO3` [Example 249, (1S,3′R,6′R,7′S,8′E,11′S,12′R)-7′-((4-acetyl-1-piperazinyl)methyl)-6-chloro-7′-methoxy-11′,12′-dimethyl-3,4-dihydro-2H,15′H-spiro[naphthalene-1,22′-[20]oxa[13]thia[1,14]diazatetracyclo [14.7.2.0~3,6~.0~19,24~]pentacosa[8,16,18,24]tetraen]-15′-one 13′,13′-dioxide], the IC50 in experiment [1] (setting [6]) stood at 114 nM; in experiment [2] (setting [7]), 0.063 nM.

With `C[C@@H]1[C@@H](C)CCC[C@](O)([C@@H](C)C(=O)N(C)C)[C@@H]2CC[C@H]2CN2C[C@@]3(CCCc4cc(Cl)ccc43)COc3ccc(cc32)C(=O)NS1(=O)=O` (single isomer, unassigned) [Example 100117], the IC50 is 3170 nM in experiment [1] (setting [3]) and 2.4 nM in experiment [2] (setting [4]).

Turning to `CO[C@@]1(CN2CCN(C3COCCOC3)CC2)/C=C/C[C@H](C)[C@@H](C)S(=O)(=O)NC(=O)c2ccc3c(c2)N(C[C@@H]2CC[C@H]21)C[C@@]1(CCCc2cc(Cl)ccc21)CO3` [Example 340, (1S,3′R,6′R,7′S,8′E,11′S,12′R)-6-chloro-7′-((4-(1,4-dioxepan-6-yl)-1-piperazinyl)methyl)-7′-methoxy-11′,12′-dimethyl-3,4-dihydro-2H,15′H-spiro[naphthalene-1,22′-[20]oxa[13]thia[1,14]diazatetracyclo [14.7.2.0~3,6~.0~19,24~]pentacosa[8,16,18,24]tetraen]-15′-one 13′,13′-dioxide], the figures for the IC50 in experiment [1] (setting [6]) and in experiment [2] (setting [7]) were 60 nM and 0.128 nM, respectively.

As to `C[C@@H]1[C@@H](C)CCC[C@](O)([C@@H](C)C(=O)N(C)C)[C@@H]2CC[C@H]2CN2C[C@@]3(CCCc4cc(Cl)ccc43)COc3ccc(cc32)C(=O)NS1(=O)=O` (single isomer, unassigned) [Example 100118], the figures for the IC50 in experiment [1] (setting [3]) and in experiment [2] (setting [4]) were 3950 nM and 4.44 nM, respectively.

Regarding `C[C@@H]1[C@@H](C)C/C=C/[C@](O)(C(C)(C)C#N)[C@@H]2CC[C@H]2CN2C[C@@]3(CCCc4cc(Cl)ccc43)COc3ccc(cc32)C(=O)NS1(=O)=O` [Example 100060, 2-((1S,3′R,6′R,7′R,8′E,11′S,12′R)-6-chloro-7′-hydroxy-11′,12′-dimethyl-13′,13′-dioxido-15′-oxo-3,4-dihydro-2H-spiro[naphthalene-1,22′-[20]oxa[13]thia[1,14]diazatetracyclo [14.7.2.0~3,6~.0~19,24~]pentacosa[8,16,18,24]tetraen]-7′-yl)-2-methylpropanenitrile], the IC50 in experiment [1] (setting [3]) is 5980 nM; in experiment [2] (setting [4]), 4.01 nM.

Take `C[C@@H]1[C@@H](C)CCC[C@](C)(CN2CCN3CCOC[C@@H]3C2)[C@@H]2CC[C@H]2CN2C[C@@]3(CCCc4cc(Cl)ccc43)COc3ccc(cc32)C(=O)NS1(=O)=O` [Example 100300, (1S,3′R,6′R,7′S,11′S,12′R)-6-chloro-7′-((9aS)-hexahydropyrazino[2,1-c][1,4]oxazin-8(1H)-ylmethyl)-7′,11′,12′-trimethyl-3,4-dihydro-2H,15′H-spiro[naphthalene-1,22′-[20]oxa[13]thia[1,14]diazatetracyclo [14.7.2.0~3,6~.0~19,24~]pentacosa[16,18,24]trien]-15′-one 13′,13′-dioxide]: the IC50 was 235 nM in experiment [1] (setting [5]) and 0.109 nM in experiment [2] (setting [4]).

In the case of `C[C@@H]1[C@@H](C)C/C=C/[C@@](O)(CC(=O)O)[C@@H]2CC[C@H]2CN2C[C@@]3(CCCc4cc(Cl)ccc43)COc3ccc(cc32)C(=O)NS1(=O)=O` [Example 100101, ((1S,3′R,6′R,7′S,8′E,11′S,12′R)-6-chloro-7′-hydroxy-11′,12′-dimethyl-13′,13′-dioxido-15′-oxo-3,4-dihydro-2H-spiro[naphthalene-1,22′-[20]oxa[13]thia[1,14]diazatetracyclo [14.7.2.0~3,6~.0~19,24~]pentacosa[8,16,18,24]tetraen]-7′-yl)acetic acid], the IC50 in experiment [1] (setting [5]) came out at 2600 nM; in experiment [2] (setting [4]), 0.062 nM.
